Test results taken from ChEMBL document CHEMBL5291721, “A preclinical secondary pharmacology resource illuminates target-adverse drug reaction associations of marketed drugs” (Nat Commun, 2023).

How the values were obtained:
[1] = target: T1, 5-hydroxytryptamine receptor 3A (Homo sapiens, UniProt P46098); assay type: functional
T1 sequence (P46098 whole entry): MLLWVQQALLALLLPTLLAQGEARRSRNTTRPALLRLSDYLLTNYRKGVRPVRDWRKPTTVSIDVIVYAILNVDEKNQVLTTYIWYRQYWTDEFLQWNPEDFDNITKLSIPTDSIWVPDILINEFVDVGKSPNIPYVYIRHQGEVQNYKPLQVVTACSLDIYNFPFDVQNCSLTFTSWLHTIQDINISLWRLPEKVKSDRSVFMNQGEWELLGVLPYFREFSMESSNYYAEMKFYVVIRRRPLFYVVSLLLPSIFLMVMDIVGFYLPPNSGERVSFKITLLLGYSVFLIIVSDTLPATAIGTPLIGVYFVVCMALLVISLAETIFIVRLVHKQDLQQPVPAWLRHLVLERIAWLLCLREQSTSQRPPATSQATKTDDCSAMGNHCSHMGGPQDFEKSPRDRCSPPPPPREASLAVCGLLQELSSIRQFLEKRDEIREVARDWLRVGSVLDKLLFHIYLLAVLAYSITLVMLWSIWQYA

[2] = target: Gamma-aminobutyric acid receptor subunit alpha-1 (Rattus norvegicus, UniProt P62813)
Gamma-aminobutyric acid receptor subunit alpha-1, sequence (P62813 whole entry): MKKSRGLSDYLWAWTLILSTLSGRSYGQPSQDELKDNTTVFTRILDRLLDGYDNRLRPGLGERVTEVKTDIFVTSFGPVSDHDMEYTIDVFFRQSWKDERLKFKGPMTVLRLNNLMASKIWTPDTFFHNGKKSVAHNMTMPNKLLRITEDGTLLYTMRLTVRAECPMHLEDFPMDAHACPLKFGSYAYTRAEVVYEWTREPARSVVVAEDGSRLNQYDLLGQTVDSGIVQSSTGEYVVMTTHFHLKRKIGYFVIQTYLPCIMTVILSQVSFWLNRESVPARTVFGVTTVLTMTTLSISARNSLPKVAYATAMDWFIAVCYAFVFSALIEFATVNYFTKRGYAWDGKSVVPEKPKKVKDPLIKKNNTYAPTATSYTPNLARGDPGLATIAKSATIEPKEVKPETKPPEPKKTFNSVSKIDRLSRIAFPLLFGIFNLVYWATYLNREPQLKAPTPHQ

Endothelin-1 receptor = target: T2, Endothelin-1 receptor (Homo sapiens, UniProt P25101)
T2 sequence (P25101 whole entry): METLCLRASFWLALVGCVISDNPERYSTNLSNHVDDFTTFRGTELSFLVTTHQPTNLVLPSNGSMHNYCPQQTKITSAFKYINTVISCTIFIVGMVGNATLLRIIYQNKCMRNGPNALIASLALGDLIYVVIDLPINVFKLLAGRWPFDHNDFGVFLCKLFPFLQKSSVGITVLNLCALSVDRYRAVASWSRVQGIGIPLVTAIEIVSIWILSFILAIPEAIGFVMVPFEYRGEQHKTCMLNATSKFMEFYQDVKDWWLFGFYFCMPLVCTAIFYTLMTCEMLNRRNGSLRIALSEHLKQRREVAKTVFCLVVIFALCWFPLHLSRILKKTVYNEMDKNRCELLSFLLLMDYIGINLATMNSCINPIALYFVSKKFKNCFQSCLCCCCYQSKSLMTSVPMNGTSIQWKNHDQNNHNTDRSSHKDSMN

[3] = target: 3',5'-cyclic-AMP phosphodiesterase 4D (Homo sapiens, UniProt Q08499); assay type: functional
3',5'-cyclic-AMP phosphodiesterase 4D, sequence (Q08499 whole entry): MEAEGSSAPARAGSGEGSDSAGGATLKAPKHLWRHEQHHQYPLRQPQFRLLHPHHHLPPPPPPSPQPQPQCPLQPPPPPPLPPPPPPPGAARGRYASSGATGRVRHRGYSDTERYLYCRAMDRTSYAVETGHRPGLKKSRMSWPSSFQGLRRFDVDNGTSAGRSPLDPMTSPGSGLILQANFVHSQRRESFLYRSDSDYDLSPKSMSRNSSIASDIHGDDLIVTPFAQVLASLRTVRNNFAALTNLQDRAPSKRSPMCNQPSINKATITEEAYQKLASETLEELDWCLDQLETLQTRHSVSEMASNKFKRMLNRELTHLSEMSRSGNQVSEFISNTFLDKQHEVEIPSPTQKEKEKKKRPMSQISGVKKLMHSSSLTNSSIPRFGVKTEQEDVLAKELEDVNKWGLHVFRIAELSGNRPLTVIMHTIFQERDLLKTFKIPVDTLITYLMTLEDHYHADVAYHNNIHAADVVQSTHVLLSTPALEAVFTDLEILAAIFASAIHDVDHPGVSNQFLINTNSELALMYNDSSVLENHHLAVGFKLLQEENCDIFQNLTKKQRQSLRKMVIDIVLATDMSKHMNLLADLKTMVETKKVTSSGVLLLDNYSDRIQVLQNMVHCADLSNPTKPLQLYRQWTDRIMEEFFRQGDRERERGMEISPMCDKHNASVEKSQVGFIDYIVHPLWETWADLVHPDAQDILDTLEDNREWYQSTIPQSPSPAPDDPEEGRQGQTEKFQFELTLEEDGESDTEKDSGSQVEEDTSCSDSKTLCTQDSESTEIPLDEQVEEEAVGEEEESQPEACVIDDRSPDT

[4] = target: T3, Equilibrative nucleoside transporter 1 (Homo sapiens, UniProt Q99808)
T3 sequence (Q99808 whole entry): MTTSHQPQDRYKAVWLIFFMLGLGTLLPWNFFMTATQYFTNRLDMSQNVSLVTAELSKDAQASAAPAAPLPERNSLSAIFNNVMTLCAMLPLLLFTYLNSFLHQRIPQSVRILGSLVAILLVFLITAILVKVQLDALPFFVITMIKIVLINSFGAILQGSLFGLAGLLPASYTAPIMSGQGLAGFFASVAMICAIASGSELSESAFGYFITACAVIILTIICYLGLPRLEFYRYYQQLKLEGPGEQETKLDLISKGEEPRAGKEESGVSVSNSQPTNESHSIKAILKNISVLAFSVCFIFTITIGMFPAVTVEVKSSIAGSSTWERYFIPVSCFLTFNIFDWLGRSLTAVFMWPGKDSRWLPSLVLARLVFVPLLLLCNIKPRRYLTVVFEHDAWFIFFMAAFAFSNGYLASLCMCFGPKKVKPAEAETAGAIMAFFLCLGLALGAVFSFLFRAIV

[5] = target: T4, Alpha-1A adrenergic receptor (Homo sapiens, UniProt P35348); assay type: functional, cell-based
T4 sequence (P35348 whole entry): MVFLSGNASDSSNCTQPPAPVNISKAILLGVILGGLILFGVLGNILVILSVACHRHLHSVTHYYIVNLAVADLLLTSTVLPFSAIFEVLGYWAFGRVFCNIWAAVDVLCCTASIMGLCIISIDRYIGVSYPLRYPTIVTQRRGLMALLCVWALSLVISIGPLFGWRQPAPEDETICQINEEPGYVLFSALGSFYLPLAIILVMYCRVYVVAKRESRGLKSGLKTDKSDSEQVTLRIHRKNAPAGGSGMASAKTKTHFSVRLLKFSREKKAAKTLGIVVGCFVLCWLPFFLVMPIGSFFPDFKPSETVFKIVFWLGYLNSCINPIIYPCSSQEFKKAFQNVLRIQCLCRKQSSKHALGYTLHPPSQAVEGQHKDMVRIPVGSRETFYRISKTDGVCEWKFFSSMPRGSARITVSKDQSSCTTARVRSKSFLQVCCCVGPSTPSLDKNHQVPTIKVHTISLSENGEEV

D(1A) dopamine receptor = D(1A) dopamine receptor (Homo sapiens, UniProt P21728); assay type: functional, cell-based
D(1A) dopamine receptor, sequence (P21728 whole entry): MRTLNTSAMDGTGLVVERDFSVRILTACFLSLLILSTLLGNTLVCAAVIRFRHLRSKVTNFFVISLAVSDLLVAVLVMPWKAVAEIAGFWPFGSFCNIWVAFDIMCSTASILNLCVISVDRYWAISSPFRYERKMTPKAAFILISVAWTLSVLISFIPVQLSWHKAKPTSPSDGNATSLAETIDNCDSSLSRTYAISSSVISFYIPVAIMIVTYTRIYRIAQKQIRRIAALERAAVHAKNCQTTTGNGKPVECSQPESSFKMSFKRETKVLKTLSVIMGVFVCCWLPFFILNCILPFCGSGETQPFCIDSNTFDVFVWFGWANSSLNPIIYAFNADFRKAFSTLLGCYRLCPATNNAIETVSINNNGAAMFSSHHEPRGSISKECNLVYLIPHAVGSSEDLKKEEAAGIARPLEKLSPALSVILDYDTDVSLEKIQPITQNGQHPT
Also: assay procedure not described here.

SMILES | AC50 [1] [µM] | AC50 [2] [µM] | AC50 (Endothelin-1 receptor) [µM] | AC50 [3] [µM] | AC50 [4] [µM] | AC50 [5] [µM] | AC50 (D(1A) dopamine receptor) [µM]
CCOc1nc2cccc(C(=O)O)c2n1Cc1ccc(-c2ccccc2-c2nnn[nH]2)cc1 | > 30 | > 10 | > 30 | > 30 | > 30 | > 30 | > 30
CCCc1nc2c(C)cc(-c3nc4ccccc4n3C)cc2n1Cc1ccc(-c2ccccc2C(=O)O)cc1 | > 30 | > 30 | > 30 | 7.1 | > 30 | 3 | > 30
CCOc1cc([C@@H](CS(C)(=O)=O)N2C(=O)c3cccc(NC(C)=O)c3C2=O)ccc1OC | > 30 | – | > 30 | – | > 30 | > 30 | > 30
CC(=O)Nc1ccc(CC(=O)O)cc1 [ACTARIT] | > 30 | > 30 | > 30 | > 30 | > 30 | > 30 | > 30
CC(C(=O)O)c1ccc2oc(-c3ccc(Cl)cc3)nc2c1 (stereo not given) [BENOXAPROFEN] | > 30 | > 30 | > 30 | > 30 | > 30 | 23 | > 30
CC1(C)S[C@@H]2[C@H](NC(=O)C(C(=O)O)c3ccccc3)C(=O)N2[C@H]1C(=O)O (stereo not given in full) [CARBENICILLIN] | > 30 | – | > 30 | > 30 | > 30 | > 30 | > 30
Cc1nnc(SCC2=C(C(=O)O)N3C(=O)[C@@H](NC(=O)Cn4cnnn4)[C@H]3SC2)s1 [CEFAZOLIN] | > 300 | – | > 300 | > 300 | > 300 | > 300 | > 300
CC=CC1=C(C(=O)O)N2C(=O)[C@@H](NC(=O)[C@H](N)c3ccc(O)cc3)[C@H]2SC1 [CEFPROZIL] | > 30 | > 30 | – | > 30 | > 30 | > 30 | > 30
CC(C)(O/N=C(\C(=O)N[C@@H]1C(=O)N2C(C(=O)[O-])=C(C[n+]3ccccc3)CS[C@H]12)c1csc(N)n1)C(=O)O [CEFTAZIDIME] | > 300 | – | > 300 | > 300 | > 300 | > 300 | > 300
CCCNC(=O)NS(=O)(=O)c1ccc(Cl)cc1 [CHLORPROPAMIDE] | > 30 | > 10 | > 30 | > 30 | > 30 | > 30 | > 10
Cc1cc(C2CCCCC2)n(O)c(=O)c1 [CICLOPIROX] | – | – | – | > 30 | – | > 30 | –
Clc1ccc(Cn2c(CN3CCCC3)nc3ccccc32)cc1 [CLEMIZOLE] | > 30 | – | > 30 | 28 | > 30 | 13 | > 30
CCC(=O)O[C@]1(C(=O)CCl)[C@@H](C)C[C@H]2[C@@H]3CCC4=CC(=O)C=C[C@]4(C)[C@@]3(F)[C@@H](O)C[C@@]21C [CLOBETASOL PROPIONATE] | > 30 | > 30 | > 30 | > 30 | > 30 | > 30 | > 30
Cc1nc(Nc2ncc(C(=O)Nc3c(C)cccc3Cl)s2)cc(N2CCN(CCO)CC2)n1 [DASATINIB] | > 30 | – | > 30 | 28 | > 30 | 10 | > 30
CC(C)Cc1ccc([C@H](C)C(=O)O)cc1 [DEXIBUPROFEN] | > 30 | – | > 30 | > 30 | > 30 | > 30 | > 30
CNC[C@H](O)c1ccc(O)c(O)c1 [EPINEPHRINE] | > 30 | – | > 30 | > 30 | > 30 | – | –
Cc1onc(-c2c(F)cccc2Cl)c1C(=O)N[C@@H]1C(=O)N2[C@@H]1SC(C)(C)[C@@H]2C(=O)O [FLOXACILLIN] | > 30 | – | > 30 | > 30 | > 30 | > 30 | > 30
CCCCCCCN(CC)CCCC(O)c1ccc(NS(C)(=O)=O)cc1 (stereo not given) [IBUTILIDE] | > 30 | > 30 | > 30 | > 30 | > 30 | > 30 | > 30
CC[C@H](C)C(=O)O[C@H]1C[C@@H](C)C=C2C=C[C@H](C)[C@H](CC[C@@H]3C[C@@H](O)CC(=O)O3)[C@H]21 [LOVASTATIN] | > 30 | > 10 | > 30 | > 30 | > 30 | – | > 10
CC[C@@H](CO)NC(=O)[C@@H]1C=C2c3cccc4c3c(cn4C)C[C@H]2N(C)C1 [METHYSERGIDE] | > 30 | > 10 | > 30 | > 30 | > 30 | – | –
CNC(=C[N+](=O)[O-])NCCSCc1csc(CN(C)C)n1 [NIZATIDINE] | > 30 | > 10 | – | > 30 | > 10 | – | > 10
CN1Cc2c(N)cccc2C(c2ccccc2)C1 (stereo not given) [NOMIFENSINE] | > 30 | > 30 | > 30 | > 30 | > 30 | 13 | > 30
CC(CN1c2ccccc2Sc2ccccc21)N(C)C (stereo not given) [PROMETHAZINE] | > 30 | > 10 | > 30 | > 30 | > 30 | 1.7 | > 10
CCCc1cc(=O)[nH]c(=S)[nH]1 [PROPYLTHIOURACIL] | > 30 | > 10 | – | > 30 | > 10 | – | > 10
Cn1cc(C(=O)[C@@H]2CCc3nc[nH]c3C2)c2ccccc21 [RAMOSETRON] | 0.0004 | > 30 | > 30 | > 30 | > 30 | > 30 | > 30
CN(CCOc1ccc(CC2SC(=O)NC2=O)cc1)c1ccccn1 (stereo not given) [ROSIGLITAZONE] | > 30 | > 30 | > 30 | 29 | > 30 | 11 | > 30
S=P(N1CC1)(N1CC1)N1CC1 [THIOTEPA] | > 30 | – | > 30 | > 30 | > 30 | 0.044 | > 30
CC(C)C[C@H](NC(=O)[C@@H](O)[C@H](N)Cc1ccccc1)C(=O)O [UBENIMEX] | > 30 | > 30 | – | > 30 | > 30 | > 30 | > 30
COc1cc(C(=O)NS(=O)(=O)c2ccccc2C)ccc1Cc1cn(C)c2ccc(NC(=O)OC3CCCC3)cc12 [ZAFIRLUKAST] | > 30 | > 10 | – | 5.4 | > 10 | 5.9 | > 10
